Consider two compounds from patent publication US9439941B2, “Nano cancer barrier device (NCBD) to immobilize and inhibit the division of metastic cancer stem cells” (The University of Hong Kong, priority 2009, dated 2016).

Series [1] relates to hormone refractory prostate cancer (HRPC). Particulars: HRPC patients, Docetaxel-based chemotherapy; cited from earlier work.
The nature of series [2]: pH of untreated SAP solution. The format is physicochemical. Particulars: before neutralization in culture medium. Here is the method:
(§1) Untreated SAP solution has a very low pH (about 3-4). We neutralized the SAP solution in culture medium before implanting cells in the material. Briefly, for both 1% and 3%, SAP was placed in a dry dish and then 500 μl of culture medium added at the edge of the dish. This was to ensure that the culture medium would not wash the SAP away. The self-assembly occurred as soon as the material made contact with the medium. The medium was changed once at 30 minutes, and then removed. The 400 cells were placed either in the assembled SAP or a control well. Culture medium was then added at the edge of the dish in both SAP cases, and topped up every 2 days to compensate for evaporation. On day 14, the cells were vigorously washed out of the SAP using culture medium. In the 1% case, group 1 (n=4), the cells and SAP were moved to a new well and contents were washed multiple times to separate them from the SAP. In the 3% case, group 2 (n=4), the wells were also vigorously washed to remove the cells from the SAP. However, in both the 1% and 3% SAP concentration, not all of the cells were liberated. The culture continued to grow for 28 days at which point the wells were fixed with 4% paraformaldahyde.

For series [3], the system named is prostate cancer cells (DU145). Nature of the series: spheroid (prostasphere) / colony formation of prostate cancer stem cells embedded in SAP, non-adherent plate. Particulars: for state of CSCs: 14 days after plating; for prostasphere detection: 14 days after plating in non-adherent plate. It counts as cell-based. Here is the method:
The SAP solution was prepared by using RADA16-I dry powder (made in the Ellis-Behnke lab) and mixed in an Eppendorf tube. The solution contained 10 or 30 mg of RADA16-I powder in 1 ml of Milli-Q water (Millipore Corp., Billerica Mass.), mixed, then sonicated for 30 seconds and filtered; this produced 1% and 3% SAP, respectively.
Pre-mix medium for spheroid assay. Mix 50 ml SFM (DMEM-F12-high glucose with 0.25% methylcellulose) and add 1 ml b27 per 50 ml SFM (50× stock). The growth factors are: fibroblast growth factor-basic (FGF) (Sigma cat. no. F0291)—25 μg dissolved in 1.0 ml of 5 mM Tris (pH 7.6) and sterilized with a 0.22 μm pore size filter (make 20 μl aliquots (stored at −20° C.) and add 10 μl per 50 ml of SFM); Epidermal growth factor (EGF) (Sigma cat. no. E4127)—0.1 mg dissolved in 1.0 ml of phosphate-buffered saline containing 0.1% bovine serum albumin (Sigma cat. no. A7511) (make […] (stored at −20° C.) and add 10 μl per 50 ml of SFM); Insulin 10 mg/ml—add 20 μl per 50 ml.
To remove prostate cancer cells (DU145, ATCC, Rockville, Md.) from adherent culture, trypsin was used to liberate and then re-suspend 400 cells per 1 μl plated in each well (10). Before plating the cells, the plate was coated with polyhema (Sigma, St. Louis, Mo.).
as §1

Entries after “also recorded” stand apart in the source; their conditions may differ.

For the compound `CC(=O)O[C@@]12CO[C@@H]1C[C@H](O)[C@@]1(C)C(=O)[C@H](O)C3=C(C)[C@@H](OC(=O)[C@H](O)[C@@H](NC(=O)OC(C)(C)C)c4ccccc4)C[C@@](O)([C@@H](OC(=O)c4ccccc4)[C@H]21)C3(C)C` [Docetaxel], the “improvement of median survival time” value in series [1] is on record as 3 months.
As to n-RADARADARADARADA-c [SAP], the “pH of untreated SAP solution” value in series [2] was 3-4. In addition, the “state of CSCs” value in series [3] (1% SAP) and in series [3] (3% SAP) was “most of the CSCs remained single cells” in each case. For the same compound, the prostasphere detection entry in series [3] (1% SAP) and in series [3] (3% SAP) was “no prostaspheres could be detected” each time. Besides, the “time remaining cells continued to be quiescent (no division, no colony formation)” value in series [3] (1% SAP, cells not liberated by day-14 washout) is reported as “up to 28 days”. In addition, the “state of cells at day 10 (FIG. 1G)” value in series [3] (1% SAP, day 10) is on record as “still single cells”. In addition, in series [3] (1% SAP, group 1 (n=4)), the “cell division and colony formation while cells are in the material” value is “remained quiescent; also recorded: delayed division and formation of colonies”. The “colonies when cells completely surrounded by the material” value in series [3] (1% and 3% SAP) is listed as “no colonies were seen”. Further, the “colonies when part of the cell was exposed” value in series [3] (1% and 3% SAP, some cases) is given as “a colony of reduced size was seen”. Further, the “time proliferation of cells was suspended” value in series [3] (1% and 3% SAP, experiment then stopped) was 28 days. Further, in series [3] (3% SAP, at 28 days), the “cell division or colony formation of cells that remained in the material” value was “no cell division or colony formation”. The “state of cells at day 10 (FIG. 1H)” value in series [3] (3% SAP, day 10) is “still single cells”. Moreover, in series [3] (3% SAP, day 28), the “size of single cell remaining in SAP (FIG. 1O)” value is “still the same size as day 1”. Further, in series [3] (CSCs from prostate cancer cell lines embedded in SAP), the “time CSCs remained quiescent” value is recorded as “more than 28 days”. Moreover, the “self-renewal of prostate CSC” value in series [3] (SAP, viability and CSC property preserved) is recorded as “completely inhibit”. The “time until colonization visible post-washout” value in series [3] (cells washed out of 1% SAP) was found to be 10 days. Also, the “viability and self-renewal of embedded cells after washout” value in series [3] (cells washed out of 1% SAP and replated) was “viable and capable of self-renewal”. Besides, in series [3] (cells washed out of 1% SAP at day 14, replated in non-adherent plate), the “time until prostaspheres visible after washout” value was 8 days. Also, the “time until prostaspheres evident post-washout” value in series [3] (cells washed out of 3% SAP at day 14) was 8 days. For the same compound, the “division of cancer cells in vitro and subsequent colony formation” value in series [3] (each group, cells placed in the SAP) is recorded as “stopped”.
